Data: patent US12570655B2, “Cysteine covalent modifiers of AKT1 and uses thereof” (Terremoto Biosciences, Inc., priority 2023, dated 2026)

Experiments:
Assay type in all cases: cell-based
AKT1 E17K = biological target: T1, AKT1 E17K (Homo sapiens, UniProt P31749, E17K); test: Live cell AKT1 E17K target engagement by NanoBRET competitive probe displacement; conditions: HEK293 cells transfected with kinase-NanoLuciferase fusion, 2 h at 37° C.
T1 construct: expressed in transfected cells; host or cells: HEK293
Method in brief: (§1)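 Steps: overnight transfection of HEK293 with kinase-NanoLuc plasmids; addition of compound dilutions and tracer (~EC50); 2 h incubation at 37 °C; substrate plus extracellular luciferase inhibitor; luminescence at 460 and 600 nm. IC50 values came from fitting the BRET ratio to a Hill equation.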

AKT2 = biological target: T2, AKT2 (Homo sapiens, UniProt P31751); test: Live cell AKT2 target engagement by NanoBRET competitive probe displacement; conditions: HEK293 cells transfected with kinase-NanoLuciferase fusion, 2 h at 37° C.
T2 construct: expressed in transfected cells; host or cells: HEK293
Method in brief: as §1

[1] = system: LAPC4 prostate cancer cells; test: Antiproliferative effects in LAPC4 cells (CellTiter Glo); conditions: Homo sapiens, LAPC4, 72 h, LAPC4 cells (AKT1 E17K allele), read-out: LAPC4 proliferation IC50
Method in brief: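 Growth inhibition is gauged by intracellular ATP content, measured with CellTiter Glo 72 h after compound addition to 1,000 seeded cells per well. IC50 derives from a Hill equation fit.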

AKT1 WT = biological target: T3, AKT1 WT (Homo sapiens, UniProt P31749); test: Live cell AKT1 WT target engagement by NanoBRET competitive probe displacement; conditions: HEK293 cells transfected with kinase-NanoLuciferase fusion, 2 h at 37° C.
T3 construct: expressed in transfected cells; host or cells: HEK293
Method in brief: as §1

T2 sequence (P31751 whole entry, the tested form may be a part): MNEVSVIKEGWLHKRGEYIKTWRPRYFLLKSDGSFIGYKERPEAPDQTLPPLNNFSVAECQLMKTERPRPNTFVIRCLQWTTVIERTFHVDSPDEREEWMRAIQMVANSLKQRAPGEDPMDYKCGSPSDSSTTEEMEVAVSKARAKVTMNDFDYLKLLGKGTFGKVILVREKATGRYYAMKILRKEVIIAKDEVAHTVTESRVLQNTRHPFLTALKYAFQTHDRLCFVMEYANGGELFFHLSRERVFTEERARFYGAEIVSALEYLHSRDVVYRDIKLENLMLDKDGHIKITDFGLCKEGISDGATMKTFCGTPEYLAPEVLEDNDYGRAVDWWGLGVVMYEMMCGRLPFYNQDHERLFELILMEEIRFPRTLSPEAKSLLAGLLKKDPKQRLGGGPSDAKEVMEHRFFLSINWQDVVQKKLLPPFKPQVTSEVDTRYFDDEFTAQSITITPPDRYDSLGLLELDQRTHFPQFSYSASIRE
T3 sequence (P31749 whole entry, the tested form may be a part): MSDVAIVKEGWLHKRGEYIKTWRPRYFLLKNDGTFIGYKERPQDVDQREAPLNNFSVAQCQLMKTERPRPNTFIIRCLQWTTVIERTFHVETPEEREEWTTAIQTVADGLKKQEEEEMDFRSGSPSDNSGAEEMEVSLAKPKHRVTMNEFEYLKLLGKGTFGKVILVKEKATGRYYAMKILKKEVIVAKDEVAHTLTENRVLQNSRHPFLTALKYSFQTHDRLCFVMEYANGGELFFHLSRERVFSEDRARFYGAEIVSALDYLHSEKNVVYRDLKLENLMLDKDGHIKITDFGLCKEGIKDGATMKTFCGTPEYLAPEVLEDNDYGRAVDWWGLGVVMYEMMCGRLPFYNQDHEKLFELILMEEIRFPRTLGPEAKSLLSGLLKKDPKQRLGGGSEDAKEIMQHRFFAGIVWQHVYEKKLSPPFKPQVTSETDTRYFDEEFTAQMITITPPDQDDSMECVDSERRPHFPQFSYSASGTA
T1 sequence (P31749 whole entry E17K, the tested form may be a part): as the sequence (P31749 whole entry, the tested form may be a part) above, with E17K counted along it

Structure (SMILES) | IC50 (AKT1 E17K) [nM] | IC50 (AKT2) [nM] | IC50 [1] [nM] | IC50 (AKT1 WT) [nM]
C=CC(=O)N1CCC(N[C@H]2CCc3cc(-n4c(-c5cccnc5N)nc5ccc(-c6cnn(C(F)F)c6)nc54)ccc32)CC1 [Example 187, 1-(4-{[(1S)-5-[2-(2-aminopyridin-3-yl)-5-[1-(difluoromethyl)pyrazol-4-yl]imidazo[4,5-b]pyridin-3-yl]-2,3-dihydro-1H-inden-1-yl]amino}piperidin-1-yl)prop-2-en-1-one] | 7.3 | 28.7 | 64.4 | 46.4
C=CC(=O)N1CCC(N[C@H]2CCc3cc(-n4c(-c5cccnc5N)nc5ccc(N6CC[C@@H](F)C6)nc54)ccc32)CC1 [Example 194, 1-(4-{[(1S)-5-[2-(2-aminopyridin-3-yl)-5-[(3R)-3-fluoropyrrolidin-1-yl]imidazo[4,5-b]pyridin-3-yl]-2,3-dihydro-1H-inden-1-yl]amino}piperidin-1-yl)prop-2-en-1-one] | 13.8 | 142 | 310 | 446
C=CC(=O)N1CCC(N[C@H]2CCc3cc(-n4c(-c5cccnc5N)nc5ccc(C6CCC6)nc54)ccc32)CC1 [Example 195, 1-(4-{[(1S)-5-[2-(2-aminopyridin-3-yl)-5-cyclobutylimidazo[4,5-b]pyridin-3-yl]-2,3-dihydro-1H-inden-1-yl]amino}piperidin-1-yl)prop-2-en-1-one] | 7.45 | 80.8 | 319 | 415
Nc1ncccc1-c1nc2ccc(-n3cccn3)nc2n1-c1ccc2c(c1)CC[C@@H]2NC1CCN(C(=O)CCl)CC1 [Example 197, 1-(4-{[(1S)-5-[2-(2-aminopyridin-3-yl)-5-(pyrazol-1-yl)imidazo[4,5-b]pyridin-3-yl]-2,3-dihydro-1H-inden-1-yl]amino}piperidin-1-yl)-2-chloroethanone] | 18.9 | 28.6 | 469 | 121
C=CC(=O)N1CCC(N[C@H]2CCc3cc(-n4c(-c5cccnc5N)nc5ccc(OC6CC6)nc54)ccc32)CC1 [Example 198, 1-(4-{[(1S)-5-[2-(2-aminopyridin-3-yl)-5-cyclopropoxyimidazo[4,5-b]pyridin-3-yl]-2,3-dihydro-1H-inden-1-yl]amino}piperidin-1-yl)prop-2-en-1-one] | 16 | 27 | 461 | 835
C=CC(=O)N1CCC(N[C@H]2CCc3cc(-n4c(-c5cccnc5N)nc5cc(C6CC6)cnc54)ccc32)CC1 [Example 199, 1-(4-{[(1S)-5-[2-(2-aminopyridin-3-yl)-6-cyclopropylimidazo[4,5-b]pyridin-3-yl]-2,3-dihydro-1H-inden-1-yl]amino}piperidin-1-yl)prop-2-en-1-one] | 67.4 | 802 | 2380 | 603
C=CC(=O)N1CCC(N[C@H]2CCc3cc(-n4c(-c5cccnc5N)nc5ccc(N6CCCOCC6)nc54)ccc32)CC1 [Example 205, 1-(4-{[(1S)-5-[2-(2-aminopyridin-3-yl)-5-(1,4-oxazepan-4-yl)imidazo[4,5-b]pyridin-3-yl]-2,3-dihydro-1H-inden-1-yl]amino}piperidin-1-yl)prop-2-en-1-one] | 112 | 835 | 1190 | 1740
C=CC(=O)N1CCC(N[C@H]2CCc3cc(-n4c(-c5cccnc5N)nc5ccc(-n6ccc(OC)n6)nc54)ccc32)CC1 [Example 206, 1-(4-{[(1S)-5-[2-(2-aminopyridin-3-yl)-5-(3-methoxypyrazol-1-yl)imidazo[4,5-b]pyridin-3-yl]-2,3-dihydro-1H-inden-1-yl]amino}piperidin-1-yl)prop-2-en-1-one] | 7.65 | 24.8 | 62.7 | 80.5
C=CC(=O)N1CCC(N[C@H]2CCc3cc(-n4c(-c5cccnc5N)nc5ccc(-c6ccccn6)nc54)ccc32)CC1 [Example 207, (S)-1-(4-((5-(2-(2-aminopyridin-3-yl)-5-(pyridin-2-yl)-3H-imidazo[4,5-b]pyridin-3-yl)-2,3-dihydro-1H-inden-1-yl)amino)piperidin-1-yl)prop-2-en-1-one] | 7.07 | 35.2 | 114 | 48.8
C=CC(=O)N1CCC(N[C@H]2CCc3cc(-n4c(-c5cccnc5N)nc5ccc(-n6ccc(C7CC7)n6)nc54)ccc32)CC1 [Example 208, (S)-1-(4-((5-(2-(2-aminopyridin-3-yl)-5-(3-cyclopropyl-1H-pyrazol-1-yl)-3H-imidazo[4,5-b]pyridin-3-yl)-2,3-dihydro-1H-inden-1-yl)amino)piperidin-1-yl)prop-2-en-1-one] | 5.74 | 26.1 | 69.8 | 77.8
C=CC(=O)N1CCC(N[C@H]2CCc3cc(-n4c(-c5cccnc5N)nc5cc(C(F)(F)F)cnc54)ccc32)CC1 [Example 216, 1-(4-{[(1S)-5-[2-(2-aminopyridin-3-yl)-6-(trifluoromethyl)imidazo[4,5-b]pyridin-3-yl]-2,3-dihydro-1H-inden-1-yl]amino}piperidin-1-yl)prop-2-en-1-one] | 140 | 352 | 3960 | 2350
C=CC(=O)N1CC2COC(C1)C2N[C@H]1CCc2cc(-n3c(-c4cccnc4N)nc4ccc(-n5cccn5)nc43)ccc21 (stereo partly drawn) [Example 224, 1-(8-{[(1S)-5-[2-(2-aminopyridin-3-yl)-5-(pyrazol-1-yl)imidazo[4,5-b]pyridin-3-yl]-2,3-dihydro-1H-inden-1-yl]amino}-6-oxa-3-azabicyclo[3.2.1]octan-3-yl)prop-2-en-1-one] | 70.6 | 256 | 719 | 1240
C=CC(=O)N1CCC(N[C@H]2CCc3cc(-n4c(-c5cccnc5N)nc5ccc(-c6cnn(C(F)(F)F)c6)nc54)ccc32)CC1 [Example 225, 1-(4-{[(1S)-5-[2-(2-aminopyridin-3-yl)-5-[1-(trifluoromethyl)pyrazol-4-yl]imidazo[4,5-b]pyridin-3-yl]-2,3-dihydro-1H-inden-1-yl]amino}piperidin-1-yl)prop-2-en-1-one] | 31.8 | 239 | 394 | 308
C=CC(=O)N1CCC(N[C@H]2CCc3cc(-n4c(-c5cccnc5N)nc5ccc(N6CC[C@H](F)C6)nc54)ccc32)CC1 [Example 226, 1-(4-{[(1S)-5-[2-(2-aminopyridin-3-yl)-5-[(3S)-3-fluoropyrrolidin-1-yl]imidazo[4,5-b]pyridin-3-yl]-2,3-dihydro-1H-inden-1-yl]amino}piperidin-1-yl)prop-2-en-1-one] | 22.5 | 68.9 | 276 | 105
C=CC(=O)N1CCC(N[C@H]2CCc3cc(-n4c(-c5cccnc5N)nc5ccc(C6CC(F)(F)C6)nc54)ccc32)CC1 [Example 227, 1-(4-{[(1S)-5-[2-(2-aminopyridin-3-yl)-5-(3,3-difluorocyclobutyl)imidazo[4,5-b]pyridin-3-yl]-2,3-dihydro-1H-inden-1-yl]amino}piperidin-1-yl)prop-2-en-1-one] | 39 | 283 | 540 | 703
